According to patent publication US20250188080A1, “IMIDAZOLONYLQUINOLINE COMPOUNDS AND THERAPEUTIC USES THEREOF” (Merck Patent GmbH, priority 2019, published 2025):

Assays:
[1] = Non-sink dissolution in FaSSIF (pH 6.5); assay type: physicochemical; details: FaSSIF buffer solution (pH 6.5), FIG. 9
Description: Non-sink dissolution profiles for solid-state forms were acquired using shaked-flask method with excess solid material in FaSSIF medium (pH 6.5) with time-resolved sampling for determination of dissolved quantities of API.
Approx. 10-20 mg of solid sample were weighed into glass vials. 7 ml of respective medium (prewarmed to 37° C.) were added and the suspension was shaken at 450 rpm at 37° C. After 5 min, 10 min, 15 min, 30 min, 60 min, 120 min, 24 h and 48 h, […] was withdrawn and filtered through a 0.2 μm syringe filter. Clear filtrate was analysed by HPLC after suitable dilution to measure the amount of compound/form (may also be referred to as API) dissolved.
FaSSIF: 3 mM sodium taurocholate; 0.75 mM lecithin; 105.9 mM sodium chloride; 28.4 mM monobasic sodium phosphate and 8.7 mM sodium hydroxide, pH 6.5
Levels of dissolved compound/form were analysed by HPLC, with the following conditions: • Column: Chromolith RP-18e 100-3 mm • Solvent A: water/formic acid (999:1; v/v) • Solvent B: acetonitrile/formic acid (999:1; v/v) • Injection volume: 5 μL • Column temperature: 37° C. • HPLC-Gradient: […]

[2] = Dynamic vapor sorption (DVS) water uptake; assay type: physicochemical
Description: DCS water vapour sorption isotherms were acquired on DVS instrument with microbalance and incubator (DVS-Intrinsic, Surface Measurement Systems, SMS). Powder samples were accurately weighed into disposable Al pans and placed on the sample position of the DVS instrument. A nitrogen overall follow rate of 200 mL/min (combined dry and humid stream) was used for humidification. […] For all RH steps, an equilibrium condition of dm/dt≤0.0005 wt %/min was used, with a minimum RH step time of 10 minutes and a maximum RH step time (timeout) of 360 minutes.

| SMILES | Initial dissolution rate compared with parent Compound 1 [1] | also measured |
| --- | --- | --- |
| COc1cc2ncc3c(c2cc1-c1cn(C)nc1C)n(-c1c(F)cncc1OC)c(=O)n3C.O=C(O)/C=C/C(=O)O [Compound 1 fumarate] | faster initial dissolution rate | Hygroscopic properties [2]: absence of hygroscopic properties |
| COc1cc2ncc3c(c2cc1-c1cn(C)nc1C)n(-c1c(F)cncc1OC)c(=O)n3C.O=S(=O)(O)CCS(=O)(=O)O [Compound 1 edisylate] | faster initial dissolution rate |  |
| COc1cc2ncc3c(c2cc1-c1cn(C)nc1C)n(-c1c(F)cncc1OC)c(=O)n3C [Form A3] |  | Water adsorption (DVS), in words ([2]; up to a relative humidity of about 70%, 25° C.): very little water adsorption |
| COc1cc2ncc3c(c2cc1-c1cn(C)nc1C)n(-c1c(F)cncc1OC)c(=O)n3C.O=S(=O)(O)c1ccc2ccccc2c1 [Compound 1 napsylate] | faster initial dissolution rate |  |
| COc1cc2ncc3c(c2cc1-c1cn(C)nc1C)n(-c1c(F)cncc1OC)c(=O)n3C [Form A2] |  | Water adsorbed (DVS) ([2]; up to a relative humidity of 100%, 25° C.): < 2% |
